In US20240277637A1, “CAPSAICIN DERIVATIVES IN THE TREATMENT OF IDIOPATHIC PULMONARY FIBROSIS” (aXichem AB, priority 2021, published 2024):

Key:
Assay type in all cases: cell-based
Conditions in all cases: 10 ng/ml PDGF-AB, 14 days
[1] = test system: human bronchial epithelial cells; assay: Clonogenic cell survival assay, bronchial epithelial cells with PDGF-AB (Example 3)
Description: (§1) Primary isolated human bronchial epithelial cells (NHBE) were used in this assay sourced from the American Tissue Culture Collection (Normal, Human (ATCC® BEAS-2B™)) and were cultured up to passage 6. […].
A clonogenic cell survival assay determines the ability of a cell to proliferate indefinitely. Cells were plated with increasing numbers (102 to 5×10^4) in 25 cm^2 flasks. SU9518, SU9518, a known inhibitor PDGF that has shown the ability to reduce radiation-induced fibroblast and endothelial cell activation, and phenylcapsaicin were used as positive controls. The cells were incubated with 0-10 μM (3% DMSO aqueous) of phenylcapsaicin, SU9518, and compounds 1 and 3-7 separately in the presence of 10 ng/ml PDGF-AB (Sigma Aldrich). The flasks were returned to the incubator for 14 days, after which they were stained with crystal violet (Sigma Aldrich). The colonies were counted and the surviving percentage was determined for clonogenic survival after correcting for plating efficiency.

[2] = test system: human bronchial epithelial cells; assay: Clonogenic cell survival assay, bronchial epithelial cells with PDGF-AB (Example 4)
Description: as §1
The effects of Phenylcapsaicin (2) on clonogenic survival of bronchial epithelial cells, by plating the cells with increasing numbers (102 to 5×104) in 25 cm^2 flasks were investigated. SU9518* and Phenylcapsaicin were used as positive controls. The cells were incubated with 0-10 μM (3% DMSO aqueous) of Phenylcapsaicin, SU9518, and compounds 8-12 separately in the presence of 10 ng/ml PDGF-AB (Sigma Aldrich). The flasks were returned to the incubator for 14 days, after which they were stained with crystal violet (Sigma Aldrich). The colonies were counted and the surviving percentage was determined for clonogenic survival after correcting for plating efficiency. The synthetic analogs were all calculated at 100% purity for molar concentrations.

[3] = test system: human bronchial epithelial cells; assay: Clonogenic cell survival assay, bronchial epithelial cells with PDGF-AB (Example 2)
Description: Primary isolated human bronchial epithelial cells (NHBE) (Normal, Human (ATCC® BEAS-2B™)) were cultured up to passage 6. […].
A clonogenic cell survival assay determines the ability of a cell to proliferate indefinitely. The effects of phenylcapsaicin on clonogenic survival of bronchial epithelial cells was investigated by plating the cells with increasing numbers (10^2 to 5×10^4) in 25 cm^2 flasks. SU9518, a known inhibitor for PDGF which has shown the ability to reduce radiation-induced fibroblast and endothelial cell activation, was used as the positive control. The cells were incubated with 0-10 μM of phenylcapsaicin and SU9518 separately in the presence of 10 ng/ml PDGF-AB. The flasks were returned to the incubator for 14 days, after which they were stained with crystal violet. The colonies were counted, and the surviving percentage was determined for clonogenic survival after correcting for plating efficiency.

[4] = test system: human corneal epithelial cells; assay: Clonogenic cell survival assay, corneal epithelial cells with PDGF-AB (Example 1)
Description: Primary isolated human corneal epithelial cells; Normal, Human cells (ATCC® PCS-700-010™) were maintained in culture at 37° C. with 5% CO2 and 95% humidity in serum reduced (5% fetal calf serum) modified promocell media (MPM) supplemented with 4 ng/ml fibronectin (FN), 2 ng/ml human recombinant vascular endothelial growth factor (VEGF) and 4 ng/ml basic fibroblast growth factor (bFGF).
A clonogenic cell survival assay determines the ability of a cell to proliferate indefinitely. The effects of phenylcapsaicin (2) on clonogenic survival of corneal epithelial cells was investigated by plating the cells with increasing numbers (102 to 5×104) in 25 cm^2 flasks. SU9518, a known inhibitor PDGF that has shown the ability to reduce radiation-induced fibroblast and endothelial cell activation, was used as the positive control. The cells were incubated with 0-10 μM of phenylcapsaicin and SU9518 separately in the presence of 10 ng/ml PDGF-AB. The flasks were returned to the incubator for 14 days, after which they were stained with crystal violet. The colonies were counted, and the surviving

Cc1[nH]c(/C=C2\C(=O)Nc3ccc(Br)cc32)c(C)c1CCC(=O)O [SU9518, reference compound]
Clonogenic Survival Assay (percent) ([1]; 0.10 μM): 80% | Clonogenic Survival Assay (percent) ([1]; 0.50 μM): 65% | Clonogenic Survival Assay (percent) ([1]; 1.00 μM): 59% | Clonogenic Survival Assay (percent) ([1]; 2.00 μM): 41% | Clonogenic Survival Assay (percent) ([1]; 5.00 μM): 33% | Clonogenic Survival Assay (percent) ([1]; 10.00 μM): 22% | Clonogenic Survival Assay (percent) ([2]; 0.10 uM): 80% | Clonogenic Survival Assay (percent) ([2]; 0.50 uM): 65% | Clonogenic Survival Assay (percent) ([2]; 1.00 uM): 59% | Clonogenic Survival Assay (percent) ([2]; 2.00 uM): 41% | Clonogenic Survival Assay (percent) ([2]; 5.00 uM): 33% | Clonogenic Survival Assay (percent) ([2]; 10.00 uM): 22% | effect on clonogenic survival ([3]; 0-10 μM): dose dependent reduction in cell survival | surviving fraction of epithelial cells ([3]; 5 μM): 33% | effect on clonogenic survival ([4]; 0-10 μM): dose dependent reduction in cell survival | surviving fraction of epithelial cells ([4]; 5 μM): 30%
